Species: Rattus norvegicus
Test: Open TG-GATES - Regimen: Single
Type: toxicity, organism-based, Sprague-Dawley
Design: regimen Single, gender Male, age 6 weeks
Conditions: in vivo, po, 30 mg/kg, route gavage, dose level Middle; for APTT / Bas / Eos / Fbg / Hb / Ht / Lym / MCH / MCHC / MCV / Mono / Neu / PT / Plat / RBC / Ret / WBC: tissue Blood; for KIDNEY_L / KIDNEY_R / KIDNEY_TOTAL: tissue Kidney; for LIVER: tissue Liver; for A/G / ALP / ALT / AST / BUN / CRE / Ca / Cl / DBIL / GLC / IP / K / LDH / Na / PL / RALB / TBIL / TC / TG / TP / gamma-GTP: tissue Plasma

SMILES: OCCOCCN1CCN(C(c2ccccc2)c2ccc(Cl)cc2)CC1 (configuration not stated) [HYDROXYZINE]
- TERMINAL_BW (3 h): 193.6 g
- APTT (3 h): 15.6 s
- Bas (3 h): 0.2%
- Eos (3 h): 0.8%
- Fbg (3 h): 288.4 mg/dL
- Hb (3 h): 13 g/dL
- Ht (3 h): 40.6%
- Lym (3 h): 75.4%
- MCH (3 h): 21.5 pg
- MCHC (3 h): 31.9%
- MCV (3 h): 67.3 fL
- Mono (3 h): 3.4%
- Neu (3 h): 19.6%
- PT (3 h): 15.6 s
- Plat (3 h): 107 x10_4/uL
- RBC (3 h): 604.4 x10_4/ul
- Ret (3 h): 8.9%
- WBC (3 h): 83.3 x10_2/uL
- KIDNEY_L (3 h): 0.9 g
- KIDNEY_R (3 h): 0.9 g
- KIDNEY_TOTAL (3 h): 1.8 g
- LIVER (3 h): 8.7 g
- A/G (3 h): 0.8
- ALP (3 h): 1908.4 IU/L
- ALT (3 h): 42.4 IU/L
- AST (3 h): 74.8 IU/L
- BUN (3 h): 9.2 mg/dL
- CRE (3 h): 0.2 mg/dL
- Ca (3 h): 10.9 mg/dL
- Cl (3 h): 106.2 meq/L
- DBIL (3 h): 0.012 mg/dL
- GLC (3 h): 173.4 mg/dL
- IP (3 h): 9.1 mg/dL
- K (3 h): 4.4 meq/L
- LDH (3 h): 76 IU/L
- Na (3 h): 142 meq/L
- PL (3 h): 140 mg/dL
- RALB (3 h): 2.5 g/dL
- TBIL (3 h): 0.058 mg/dL
- TC (3 h): 78.6 mg/dL
- TG (3 h): 33.2 mg/dL
- TP (3 h): 5.4 g/dL
- gamma-GTP (3 h): 1 IU/L
- TERMINAL_BW (6 h): 192 g
- APTT (6 h): 15.5 s
- Bas (6 h): 0.2%
- Eos (6 h): 0.6%
- Fbg (6 h): 289.4 mg/dL
- Hb (6 h): 12.9 g/dL
- Ht (6 h): 39.9%
- Lym (6 h): 78.8%
- MCH (6 h): 21.4 pg
- MCHC (6 h): 32.2%
- MCV (6 h): 66.4 fL
- Mono (6 h): 3%
- Neu (6 h): 16.8%
- PT (6 h): 15.1 s
- Plat (6 h): 115.9 x10_4/uL
- RBC (6 h): 601.6 x10_4/ul
- Ret (6 h): 8.8%
- WBC (6 h): 67.5 x10_2/uL
- KIDNEY_L (6 h): 0.9 g
- KIDNEY_R (6 h): 0.9 g
- KIDNEY_TOTAL (6 h): 1.8 g
- LIVER (6 h): 8.4 g
- A/G (6 h): 0.9
- ALP (6 h): 1397.6 IU/L
- ALT (6 h): 38.8 IU/L
- AST (6 h): 73.6 IU/L
- BUN (6 h): 8.4 mg/dL
- CRE (6 h): 0.2 mg/dL
- Ca (6 h): 10.9 mg/dL
- Cl (6 h): 105.8 meq/L
- DBIL (6 h): 0.01 mg/dL
- GLC (6 h): 180.4 mg/dL
- IP (6 h): 10.5 mg/dL
- K (6 h): 4.3 meq/L
- LDH (6 h): 69.2 IU/L
- Na (6 h): 142.6 meq/L
- PL (6 h): 141.8 mg/dL
- RALB (6 h): 2.5 g/dL
- TBIL (6 h): 0.064 mg/dL
- TC (6 h): 83.2 mg/dL
- TG (6 h): 40.6 mg/dL
- TP (6 h): 5.5 g/dL
- gamma-GTP (6 h): 0.8 IU/L
- TERMINAL_BW (9 h): 190.8 g
- APTT (9 h): 15.9 s
- Bas (9 h): 0%
- Eos (9 h): 0.8%
- Fbg (9 h): 281.8 mg/dL
- Hb (9 h): 12.9 g/dL
- Ht (9 h): 40%
- Lym (9 h): 79%
- MCH (9 h): 21.7 pg
- MCHC (9 h): 32.3%
- MCV (9 h): 67.1 fL
- Mono (9 h): 2.6%
- Neu (9 h): 17.2%
- PT (9 h): 15.4 s
- Plat (9 h): 104.8 x10_4/uL
- RBC (9 h): 595.6 x10_4/ul
- Ret (9 h): 8.8%
- WBC (9 h): 60.3 x10_2/uL
- KIDNEY_L (9 h): 0.9 g
- KIDNEY_R (9 h): 0.9 g
- KIDNEY_TOTAL (9 h): 1.7 g
- LIVER (9 h): 8.2 g
- A/G (9 h): 0.9
- ALP (9 h): 1266.8 IU/L
- ALT (9 h): 38 IU/L
- AST (9 h): 70.2 IU/L
- BUN (9 h): 9 mg/dL
- CRE (9 h): 0.2 mg/dL
- Ca (9 h): 10.7 mg/dL
- Cl (9 h): 107 meq/L
- DBIL (9 h): 0.01 mg/dL
- GLC (9 h): 171.6 mg/dL
- IP (9 h): 10.2 mg/dL
- K (9 h): 4 meq/L
- LDH (9 h): 83.6 IU/L
- Na (9 h): 142.8 meq/L
- PL (9 h): 127.8 mg/dL
- RALB (9 h): 2.5 g/dL
- TBIL (9 h): 0.06 mg/dL
- TC (9 h): 67.6 mg/dL
- TG (9 h): 43 mg/dL
- TP (9 h): 5.4 g/dL
- gamma-GTP (9 h): 1 IU/L
- TERMINAL_BW (24 h): 210 g
- APTT (24 h): 16.7 s
- Bas (24 h): 0.2%
- Eos (24 h): 0.8%
- Fbg (24 h): 268 mg/dL
- Hb (24 h): 12.7 g/dL
- Ht (24 h): 39.4%
- Lym (24 h): 74.6%
- MCH (24 h): 21.3 pg
- MCHC (24 h): 32.3%
- MCV (24 h): 65.9 fL
- Mono (24 h): 3.8%
- Neu (24 h): 20.4%
- PT (24 h): 16.1 s
- Plat (24 h): 122 x10_4/uL
- RBC (24 h): 599.2 x10_4/ul
- Ret (24 h): 8%
- WBC (24 h): 75.2 x10_2/uL
- KIDNEY_L (24 h): 0.9 g
- KIDNEY_R (24 h): 0.9 g
- KIDNEY_TOTAL (24 h): 1.8 g
- LIVER (24 h): 10.1 g
- A/G (24 h): 0.8
- ALP (24 h): 1659 IU/L
- ALT (24 h): 45.8 IU/L
- AST (24 h): 68.6 IU/L
- BUN (24 h): 14 mg/dL
- CRE (24 h): 0.2 mg/dL
- Ca (24 h): 11.2 mg/dL
- Cl (24 h): 106.6 meq/L
- DBIL (24 h): 0.018 mg/dL
- GLC (24 h): 188.2 mg/dL
- IP (24 h): 7.9 mg/dL
- K (24 h): 4.1 meq/L
- LDH (24 h): 75.2 IU/L
- Na (24 h): 142.8 meq/L
- PL (24 h): 153.4 mg/dL
- RALB (24 h): 2.6 g/dL
- TBIL (24 h): 0.054 mg/dL
- TC (24 h): 79.2 mg/dL
- TG (24 h): 82 mg/dL
- TP (24 h): 5.6 g/dL
- gamma-GTP (24 h): 1 IU/L
